Reference: patent publication US20210100868A1, “COMPOSITIONS AND METHODS FOR TREATING OR PREVENTING GASTROINTESTINAL DAMAGE ASSOCIATED WITH NSAID THERAPY” (NORTH CAROLINA STATE UNIVERSITY, priority 2018, published 2021)
Where no end group is shown, it is not given here.

Experiments:
[1] = tested on: ischemic-injured porcine jejunum; experiment: Recovery of barrier function (transepithelial electrical resistance) in ischemic-injured porcine jejunum in Ussing chambers, with indomethacin; format: cell-based, Yorkshire-cross pigs; details: FIG. 1
From the text: In order to determine whether Larazotide could function as a therapeutic agent that could stimulate intestinal tissue repair in the presence of a non-steroidal anti-inflammatory drug (NSAID), recovery of barrier function in ischemic-injured porcine jejunum was monitored in the presence of the NSAID indomethacin.
Specifically, Yorkshire-cross pigs of 6-8 weeks of age were anesthetized, followed by midline laparotomy and creation of a series of 10 cm intestinal loops commencing proximal to the ileum by ligating the intestinal lumen.
The local mesenteric vasculature was ligated to select treatment loops for a period of 45 minutes. Other loops were left as non-ischemic controls. The loops were subsequently resected, and the mucosal tissues were stripped in oxygenated (95% O2/5 % CO2) rings from the muscle layers in preparation of ex vivo incubation in Ussing chambers.
Select tissues (n=8) were pre-treated with indomethacin (5 μM) on both sides of the tissue, prior to receiving 0.1-10 μM Larazotide on the luminal surface after 30 minutes of incubation in the Ussing chambers.
Transepithelial electrical resistance (TER) was monitored in the tissues for 240 minutes.

tight junction = experiment: Tight junction regulator activity of larazotide fragments; details: for Activity of full length larazotide when mixed with the two fragments: GVLVQPG and VLVQPG mixed with full length larazotide; for Activity as tight junction regulators: fragment alone
[2] = clinical trials, cited from earlier work

| Compound | Activity of full length larazotide when mixed with the two fragments (tight junction) | Activity as tight junction regulators (tight junction) | further results |
| --- | --- | --- | --- |
| COc1ccc2c(c1)c(CC(=O)O)c(C)n2C(=O)c1ccc(Cl)cc1 [indomethacin] | – | – | Transepithelial electrical resistance (TER) ([1]; indomethacin applied without larazotide): decline in TER |
| VLVQPG [larazotide-derived fragment missing N-terminal glycine residues] | activity is completely abolished | largely inactive | – |
| GGVLVQPG [Larazotide] | – | – | Transepithelial electrical resistance (TER) ([1]; 1 μM larazotide on luminal surface, in the presence of indomethacin (5 μM), monitored for 240 minutes): increased TER; Clinical activity at higher doses ([2]; higher doses (e.g., 1 mg and 2 mg doses)): attenuation of activity, or no activity at all; Clinical benefit on intestinal disease symptoms ([2]; lower doses (e.g., 0.5 mg dose)): benefit at reducing intestinal disease symptoms |
| GVLVQPG [larazotide-derived fragment missing an N-terminal glycine residue] | activity is completely abolished | largely inactive | – |
